Reference: patent publication EP1140809B1, “NEW BIPHENYL AND BIPHENYL-ANALOGOUS COMPOUNDS AS INTEGRIN ANTAGONISTS” (Bayer HealthCare AG, priority 1998, dated 2000)
pIC50: −log10 of the molar value.

Assays:
Smooth muscle cells = assay: Smooth muscle cell (SMC) migration test (horizontal, vitronectin-coated plates); assay type: cell-based, humans or rats; settings: migration on vitronectin, 24 hours at 37°C; human or rat cells not specified
Protocol: b) Smooth muscle cell (SMC) migration test
Smooth muscle cells from humans or rats were used. The migration of the cells was determined in a horizontal measuring arrangement (Falcon).
The horizontal migration was determined in 6-well plates coated with vitronectin (1 µg/cm^2). The cells were suspended in a medium ([…]-rat smooth muscle cells or MCDB 131 with 0.2% BSA-human smooth muscle cells), inoculated and allowed to grow to confluence. Half of the smooth muscle cell lawn was then scraped off, and the cells were treated with different concentrations of the test compounds. The mixtures were incubated for 24 hours at 37°C in the presence of 5% CO2. After the incubation, the smooth muscle cell migration was determined by measurement of the migration distance and the cell density of the migrated cells.

αvβ3 receptor = biological target: T1, αvβ3 receptor (Homo sapiens, UniProt P05106+P06756); assay: Binding to the αvβ3 receptor (echistatin displacement, WGA SPA beads); settings: αvβ3 purified from human A375 cells, labelled echistatin, read-out: avb3 IC50
T1 construct: αvβ3 from human A375 cells were purified according to a procedure described by Wong et al; endogenous in cells; host or cells: human A375 cells; receptor purified from the cells, detergent-solubilised
Protocol: a) Binding to the αvβ3 receptor
10 µl αvβ3 (5 ng) in TBS pH 7.6, 2 mM CaCl2, 1mM MgCl2, 1% n/octylglucopyranoside; 10 µl of the substance to be tested in TBS pH 7.6, 0.1 % dimethylsulfoxide (DMSO), and 45 µl TBS pH 7.6, 2 mM CaCl2, 1 mM MgCl2, 1 mM MnCl2 were each incubated for 1 h at room temperature.

αvβ5 receptor = αvβ5 receptor (Homo sapiens, UniProt P06756+P18084); settings: disclosed in WO 98/00395; cited from earlier work
αvβ5 receptor, sequence (P06756 31-889 limits assumed): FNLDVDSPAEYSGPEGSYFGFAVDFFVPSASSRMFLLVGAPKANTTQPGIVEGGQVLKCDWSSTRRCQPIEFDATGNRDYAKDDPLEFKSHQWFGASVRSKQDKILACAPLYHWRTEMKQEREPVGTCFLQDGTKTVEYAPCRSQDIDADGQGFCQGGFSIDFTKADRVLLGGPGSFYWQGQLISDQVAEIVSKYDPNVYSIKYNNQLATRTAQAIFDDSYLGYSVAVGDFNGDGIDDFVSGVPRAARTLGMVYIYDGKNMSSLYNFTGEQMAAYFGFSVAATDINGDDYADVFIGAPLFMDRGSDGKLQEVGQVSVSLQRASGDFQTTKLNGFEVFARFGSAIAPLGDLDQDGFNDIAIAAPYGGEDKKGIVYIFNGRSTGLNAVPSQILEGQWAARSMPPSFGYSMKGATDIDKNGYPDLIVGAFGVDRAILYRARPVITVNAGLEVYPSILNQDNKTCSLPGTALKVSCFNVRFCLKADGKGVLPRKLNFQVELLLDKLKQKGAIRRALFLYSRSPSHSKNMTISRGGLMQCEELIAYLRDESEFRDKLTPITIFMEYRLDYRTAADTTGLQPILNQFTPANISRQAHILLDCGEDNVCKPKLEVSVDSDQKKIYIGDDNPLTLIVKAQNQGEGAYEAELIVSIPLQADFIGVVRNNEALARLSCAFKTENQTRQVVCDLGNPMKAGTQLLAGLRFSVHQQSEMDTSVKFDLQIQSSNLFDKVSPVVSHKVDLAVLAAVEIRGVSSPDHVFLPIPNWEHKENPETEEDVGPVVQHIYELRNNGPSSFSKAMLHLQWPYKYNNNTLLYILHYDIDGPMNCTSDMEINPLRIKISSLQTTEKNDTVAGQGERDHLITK
αvβ5 receptor, sequence (P06756 891-1048 partner limits assumed): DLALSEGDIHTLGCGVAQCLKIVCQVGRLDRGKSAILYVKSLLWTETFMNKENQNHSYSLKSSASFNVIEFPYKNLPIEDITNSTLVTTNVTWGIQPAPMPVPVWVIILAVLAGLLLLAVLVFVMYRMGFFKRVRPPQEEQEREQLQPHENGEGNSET
αvβ5 receptor, sequence (P18084 24-799): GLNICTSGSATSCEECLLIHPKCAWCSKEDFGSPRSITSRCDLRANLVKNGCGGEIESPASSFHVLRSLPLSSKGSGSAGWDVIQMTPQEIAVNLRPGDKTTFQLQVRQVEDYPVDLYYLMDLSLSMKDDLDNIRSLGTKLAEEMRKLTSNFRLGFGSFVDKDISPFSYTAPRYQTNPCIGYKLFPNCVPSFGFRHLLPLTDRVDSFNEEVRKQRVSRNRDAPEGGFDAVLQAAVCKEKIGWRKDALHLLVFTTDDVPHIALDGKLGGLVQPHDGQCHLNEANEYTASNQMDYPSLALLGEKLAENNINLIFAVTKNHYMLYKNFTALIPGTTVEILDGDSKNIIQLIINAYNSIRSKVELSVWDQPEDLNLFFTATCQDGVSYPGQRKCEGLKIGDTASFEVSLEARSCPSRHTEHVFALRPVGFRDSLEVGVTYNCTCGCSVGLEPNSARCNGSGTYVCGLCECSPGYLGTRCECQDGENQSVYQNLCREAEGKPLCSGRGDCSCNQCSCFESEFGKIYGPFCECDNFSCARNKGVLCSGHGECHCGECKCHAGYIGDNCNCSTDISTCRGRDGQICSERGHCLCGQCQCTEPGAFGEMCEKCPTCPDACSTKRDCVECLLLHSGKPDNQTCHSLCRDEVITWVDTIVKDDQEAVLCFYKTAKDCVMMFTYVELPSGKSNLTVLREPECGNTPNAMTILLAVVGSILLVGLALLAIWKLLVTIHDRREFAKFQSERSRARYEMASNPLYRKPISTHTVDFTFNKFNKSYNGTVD

T1 sequence (P06756 31-889 limits assumed): as the sequence (P06756 31-889 limits assumed) above
T1 sequence (P06756 891-1048 partner limits assumed): as the sequence (P06756 891-1048 partner limits assumed) above
T1 sequence (P05106 27-788): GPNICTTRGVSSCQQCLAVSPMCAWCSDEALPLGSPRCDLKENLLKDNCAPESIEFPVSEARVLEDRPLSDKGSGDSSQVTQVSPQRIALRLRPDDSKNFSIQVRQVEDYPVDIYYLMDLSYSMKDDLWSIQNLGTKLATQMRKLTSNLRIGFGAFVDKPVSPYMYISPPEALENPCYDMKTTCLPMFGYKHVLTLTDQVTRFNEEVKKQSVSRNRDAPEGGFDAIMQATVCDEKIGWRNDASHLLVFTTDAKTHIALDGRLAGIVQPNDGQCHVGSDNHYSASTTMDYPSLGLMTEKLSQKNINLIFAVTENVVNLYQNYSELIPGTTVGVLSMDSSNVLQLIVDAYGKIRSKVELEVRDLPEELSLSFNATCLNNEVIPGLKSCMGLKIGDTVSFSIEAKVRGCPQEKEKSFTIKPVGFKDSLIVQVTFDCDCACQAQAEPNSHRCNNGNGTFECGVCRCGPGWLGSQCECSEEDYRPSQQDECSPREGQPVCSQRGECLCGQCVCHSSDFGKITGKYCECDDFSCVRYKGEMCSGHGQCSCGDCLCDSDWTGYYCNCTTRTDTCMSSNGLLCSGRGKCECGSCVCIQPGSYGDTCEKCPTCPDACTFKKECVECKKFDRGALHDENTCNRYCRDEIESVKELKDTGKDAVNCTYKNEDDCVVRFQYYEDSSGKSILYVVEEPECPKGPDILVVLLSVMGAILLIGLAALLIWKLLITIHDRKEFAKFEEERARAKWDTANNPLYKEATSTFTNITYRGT

Row | Structure (SMILES) | pIC50 (Smooth muscle cells) | pIC50 (αvβ3 receptor) | pIC50 (αvβ5 receptor)
1 | Cc1cc(C)c(S(=O)(=O)NC(Cc2ccc(-c3cccc(NC(=O)NCc4cccnc4)c3)cc2)C(=O)O)c(C)c1 (racemic) [Example 1.5, (2R,S)-3-[3'-(3-(Pyridin-3-yl-methylureido)-biphenyl-4-yl]-2-[2,4,6-trimethylbenzenesulfonylamino]-propanoic acid] | 6.32 | 8.30 | 
2 | Cc1cc(C)c(S(=O)(=O)NC(Cc2ccc(-c3cccc(NC4=NCCN4)c3)cc2)C(=O)O)c(C)c1 (racemic) [Example 7.1, (2R,S)-3-[3'-(4,5-Dihydro-1H-Imidazol-2-ylamino)-biphenyl-4-yl]-2-(2,4,6-trimethyl-benzenesulfonylamino)-propanoic acid] |  | 8.92 | 
3 | O=C(O)CC(NS(=O)(=O)c1cccc(-c2cccc(CNCc3nc4ccccc4[nH]3)c2)c1)c1ccccc1 (racemic) [Example 8.1, (3R,S)-3-(3'-{[(1H-Benzoimidazol-2-ylmethyl)-amino]-methyl}-biphenyl-3-sulfonylamino)-3-phenyl-propanoic acid] | 6.52 |  | 
4 | CC1(C)C2CCC1(CS(=O)(=O)NC(Cc1ccc(OCCCC(=O)NC(=N)N)cc1)C(=O)O)C(=O)C2 (centres unmarked) [(I)] |  |  | 9.80
5 | Cc1cc(C)c(S(=O)(=O)N[C@@H](Cc2ccc(-c3cccc(NC(=O)NC4CC4)c3)cc2)C(=O)O)c(C)c1 [Example 1.13, (2S)-3-[3'-(3-Cyclopropyl-ureido)-biphenyl-4-yl]-2-(2,4,6-trimethyl-benzenesulfonylamino)-propanoic acid] | 6.41 | 8.92 | 
6 | CC1(C)C2CCC1(CS(=O)(=O)NC(Cc1ccc(-c3cccc(NC(=O)Nc4cccnc4)c3)cc1)C(=O)O)C(=O)C2 [Example 1.73, (2S)-3-[3'-(3-Pyridin-3-yl-ureido)-biphenyl-4-yl]-2-[(S)-campher-10-yl-sulfonylamino]-propanoic acid] | 7.40 to 8.52 |  | 
7 | O=C(O)CNS(=O)(=O)c1cccc(-c2cccc(NC(=O)NCc3ccccn3)c2)c1 [Example 4.1, [3'-(3-Pyridin-2-ylmethyl-ureido)-biphenyl-3-sulfonylamino]-acetic acid] | 6.52 | 7.48 | 
8 | Cc1cc(C)c(S(=O)(=O)N[C@@H](Cc2ccc(-c3cccc(CNc4ccccn4)c3)cc2)C(=O)O)c(C)c1 [Example 18.1.3, (2S)-2-Mesitylsulfonylamino-3-{3'-[(2-pyridinylamino)-methyl][1,1'-biphenyl]-4-yl}-propanoic acid] | 7.10 to 7.46 | 8.05 | 
9 | Cc1cc(C)c(S(=O)(=O)N[C@@H](Cc2ccc(-c3cccc(NC(=O)c4ncc[nH]4)c3)cc2)C(=O)O)c(C)c1 [Example 19.1.2, (2S)-3-{3'-[(1H-imidazol-2-ylcarbonyl)amino][1,1'-biphenyl]-4-yl}-2-[(mesitylsulfonyl)amino]-propanoic acid] | 7.10 | 9.00 | 
